In US8022091B2, “Triazole derivative” (Taisho Pharmaceutical Co., Ltd., priority 2006, dated 2011):

Target: T1, human Edg-1 (S1P1) (Homo sapiens, UniProt P21453)
T1 construct: expressed in transfected cells; host or cells: HEK-293
Assay: S1P1 binding assay: inhibition of [33P]-S1P binding to membrane fraction of HEK-293 cells transferred with the human Edg-1 (S1P1) gene
Conditions: test compound 10 μM; inhibition of [33P]-S1P binding, membrane fraction
Summary of the method: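 Membranes from S1P1-transfected HEK-293 cells incubated 1 h at 30° C in pH 7.4 Tris buffer with fatty acid-free BSA, 0.1 nM [33P]-S1P and test compound (0.1% DMSO). Filter-bound radioactivity was counted; inhibition corrected for binding to untransfected-cell membranes, and IC50 derived from concentration series.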

T1 sequence (P21453 whole entry): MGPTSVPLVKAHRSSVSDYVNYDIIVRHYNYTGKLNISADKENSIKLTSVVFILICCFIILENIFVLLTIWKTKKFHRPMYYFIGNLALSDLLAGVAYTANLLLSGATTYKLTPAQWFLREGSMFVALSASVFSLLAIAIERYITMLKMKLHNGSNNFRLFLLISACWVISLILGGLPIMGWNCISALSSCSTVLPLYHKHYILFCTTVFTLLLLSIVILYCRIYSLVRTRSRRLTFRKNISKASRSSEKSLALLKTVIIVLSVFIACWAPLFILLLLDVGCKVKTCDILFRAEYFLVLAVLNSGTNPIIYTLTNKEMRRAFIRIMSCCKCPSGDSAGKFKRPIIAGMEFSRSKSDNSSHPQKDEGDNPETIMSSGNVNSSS

inhibition at 10 µM [%]	Structure (SMILES)
79.1	CCn1c(Oc2ccc3cc[nH]c3c2)nnc1[C@@H](C)NS(=O)(=O)c1ccc(C#N)cc1 [Compound 395]
75.3	CCn1c(Oc2ccc3cc[nH]c3c2)nnc1[C@@H](C)NS(=O)(=O)c1cc(OC)ccc1OC [Compound 400]
60.2	CCn1c(Oc2ccc3cc[nH]c3c2)nnc1[C@@H](C)NS(=O)(=O)c1ccc(C(C)C)cc1 [Compound 404]
92.5	CCn1c(Oc2ccc3cc[nH]c3c2)nnc1[C@@H](C)NS(=O)(=O)c1ccc(Br)cc1F [Compound 414]
83.1	CCn1c(Oc2ccc3cc[nH]c3c2)nnc1[C@@H](C)NS(=O)(=O)c1cc(C(F)(F)F)ccc1Cl [Compound 422]
86.5	CCn1c(Oc2ccc3cc[nH]c3c2)nnc1[C@@H](C)NS(=O)(=O)c1cc(F)c(F)cc1F [Compound 427]
81.4	CCn1c(Oc2ccc3cc[nH]c3c2)nnc1[C@@H](C)NS(=O)(=O)c1cc(Br)ccc1Br [Compound 428]
71.1	CCn1c(Oc2ccc3cc[nH]c3c2)nnc1[C@@H](C)NS(=O)(=O)c1ccc(-c2ccno2)s1 [Compound 429]
80.5	CCn1c(Oc2ccc3cc[nH]c3c2)nnc1[C@@H](C)NS(=O)(=O)c1ccc(Br)cc1Br [Compound 431]
93.8	CCn1c(Oc2ccc3cc[nH]c3c2)nnc1[C@@H](C)NS(=O)(=O)c1cc(C)cc(C)c1 [Compound 433]
94.6	CCn1c(Oc2ccc3cc[nH]c3c2)nnc1[C@@H](C)NS(=O)(=O)c1cccc(OC(F)F)c1 [Compound 435]
98.1	CCn1c(Oc2ccc3cc[nH]c3c2)nnc1[C@@H](C)NS(=O)(=O)c1cc(F)c(F)c(F)c1 [Compound 439]
70.1	CCn1c(Oc2ccc3cc[nH]c3c2)nnc1[C@@H](C)NS(=O)(=O)c1ccc(C(F)(F)F)cc1Br [Compound 442]
100	CCn1c(Oc2ccc3cc[nH]c3c2)nnc1[C@@H](C)NS(=O)(=O)c1ccc(C)c(F)c1 [Compound 444]
75.8	CCn1c(Oc2ccc3cc[nH]c3c2)nnc1[C@@H](C)NS(=O)(=O)c1cc(Cl)ccc1F [Compound 446]
53.2	CCn1c(Oc2ccc3cc[nH]c3c2)nnc1[C@@H](C)NS(=O)(=O)c1cc(C)oc1C(F)(F)F [Compound 460]
51.8	CCn1c(Oc2ccc3cc[nH]c3c2)nnc1[C@@H](C)NS(=O)(=O)c1ccc(C(F)(F)F)cc1Cl [Compound 475]
58.1	CCn1c(Oc2ccc3cc[nH]c3c2)nnc1[C@@H](C)NS(=O)(=O)c1cccc(C(C)=O)c1 [Compound 477]
87.4	CCc1ccc(OC)c(S(=O)(=O)N[C@H](C)c2nnc(Oc3ccc4cc[nH]c4c3)n2CC)c1 [Compound 482]
65.3	CCn1c(Oc2ccc3cc[nH]c3c2)nnc1[C@@H](C)NS(=O)(=O)c1ccc(Cl)c(S(N)(=O)=O)c1 [Compound 484]
62.5	CCn1c(Oc2ccc3cc[nH]c3c2)nnc1[C@@H](C)NS(=O)(=O)c1ccc(Br)c(C(F)(F)F)c1 [Compound 488]
83.1	CCn1c(Oc2ccc3cc[nH]c3c2)nnc1[C@@H](C)NS(=O)(=O)c1cc2ccccc2s1 [Compound 493]

Continued, compound first:

Structure (SMILES)	inhibition at 10 µM [%]
CCn1c(Oc2ccc3cc[nH]c3c2)nnc1[C@@H](C)NS(=O)(=O)c1ccc(Cl)cc1Cl [Compound 398]	84.7
CCn1c(Oc2ccc3cc[nH]c3c2)nnc1[C@@H](C)NS(=O)(=O)c1cccc(Cl)c1 [Compound 403]	72.5
CCn1c(Oc2ccc3cc[nH]c3c2)nnc1[C@@H](C)NS(=O)(=O)c1cc(F)cc(Cl)c1C [Compound 405]	61.4
CCc1cc(Br)ccc1S(=O)(=O)N[C@H](C)c1nnc(Oc2ccc3cc[nH]c3c2)n1CC [Compound 406]	56.3
CCn1c(Oc2ccc3cc[nH]c3c2)nnc1[C@@H](C)NS(=O)(=O)c1ccc(Br)cc1C [Compound 407]	68.2
CCn1c(Oc2ccc3cc[nH]c3c2)nnc1[C@@H](C)NS(=O)(=O)c1ccc(F)c(F)c1F [Compound 409]	74.7
CCn1c(Oc2ccc3cc[nH]c3c2)nnc1[C@@H](C)NS(=O)(=O)c1cc(F)c(F)cc1Cl [Compound 412]	82.5
CCn1c(Oc2ccc3cc[nH]c3c2)nnc1[C@@H](C)NS(=O)(=O)c1ccc(F)c(F)c1 [Compound 413]	95.3
CCn1c(Oc2ccc3cc[nH]c3c2)nnc1[C@@H](C)NS(=O)(=O)c1cc(F)c(Cl)cc1F [Compound 415]	91.5
CCn1c(Oc2ccc3cc[nH]c3c2)nnc1[C@@H](C)NS(=O)(=O)c1cc(Br)c(F)cc1F [Compound 416]	83.2
CCn1c(Oc2ccc3cc[nH]c3c2)nnc1[C@@H](C)NS(=O)(=O)c1cc(Cl)c(F)cc1F [Compound 417]	90.8
CCn1c(Oc2ccc3cc[nH]c3c2)nnc1[C@@H](C)NS(=O)(=O)c1c(F)c(Br)cc(F)c1Br [Compound 420]	61
CCn1c(Oc2ccc3cc[nH]c3c2)nnc1[C@@H](C)NS(=O)(=O)c1cccc(F)c1 [Compound 423]	87.8
CCn1c(Oc2ccc3cc[nH]c3c2)nnc1[C@@H](C)NS(=O)(=O)c1cc(Cl)ccc1OC [Compound 425]	90.1
CCn1c(Oc2ccc3cc[nH]c3c2)nnc1[C@@H](C)NS(=O)(=O)c1c(C)cc(Cl)cc1Cl [Compound 426]	92.3
CCn1c(Oc2ccc3cc[nH]c3c2)nnc1[C@@H](C)NS(=O)(=O)Cc1cccc(Cl)c1 [Compound 430]	50
CCn1c(Oc2ccc3cc[nH]c3c2)nnc1[C@@H](C)NS(=O)(=O)c1ccc(F)c(C#N)c1 [Compound 432]	84.2
CCn1c(Oc2ccc3cc[nH]c3c2)nnc1[C@@H](C)NS(=O)(=O)c1ccc(OC(F)F)cc1 [Compound 434]	79.5
CCn1c(Oc2ccc3cc[nH]c3c2)nnc1[C@@H](C)NS(=O)(=O)c1c(F)cc(F)cc1Br [Compound 436]	67.5
CCn1c(Oc2ccc3cc[nH]c3c2)nnc1[C@@H](C)NS(=O)(=O)c1cc(F)cc(F)c1 [Compound 437]	97.3

Structure (SMILES)	inhibition at 10 µM [%]
CCn1c(Oc2ccc3cc[nH]c3c2)nnc1[C@@H](C)NS(=O)(=O)c1ccc(Cl)cc1F [Compound 438]	71.6
CCn1c(Oc2ccc3cc[nH]c3c2)nnc1[C@@H](C)NS(=O)(=O)c1ccc(Br)c(C)c1 [Compound 440]	88.4
CCn1c(Oc2ccc3cc[nH]c3c2)nnc1[C@@H](C)NS(=O)(=O)c1ccc(F)cc1Br [Compound 441]	63
CCn1c(Oc2ccc3cc[nH]c3c2)nnc1[C@@H](C)NS(=O)(=O)c1cc(C(F)(F)F)ccc1Br [Compound 443]	55.7
CCn1c(Oc2ccc3cc[nH]c3c2)nnc1[C@@H](C)NS(=O)(=O)c1ccc(F)cc1C [Compound 445]	55.6
CCn1c(Oc2ccc3cc[nH]c3c2)nnc1[C@@H](C)NS(=O)(=O)c1ccc(Br)c(F)c1 [Compound 447]	95.5
CCn1c(Oc2ccc3cc[nH]c3c2)nnc1[C@@H](C)NS(=O)(=O)c1ccc(Br)cc1Cl [Compound 448]	81.1
CCn1c(Oc2ccc3cc[nH]c3c2)nnc1[C@@H](C)NS(=O)(=O)c1cc(C)ccc1F [Compound 451]	76.8
CCn1c(Oc2ccc3cc[nH]c3c2)nnc1[C@@H](C)NS(=O)(=O)c1cccc(Cl)c1F [Compound 452]	68.9
CCn1c(Oc2ccc3cc[nH]c3c2)nnc1[C@@H](C)NS(=O)(=O)CC1CCCCC1 [Compound 458]	83.8
CCn1c(Oc2ccc3cc[nH]c3c2)nnc1[C@@H](C)NS(=O)(=O)c1ccc2c(c1)OCCO2 [Compound 461]	99.7
CCn1c(Oc2ccc3cc[nH]c3c2)nnc1[C@@H](C)NS(=O)(=O)c1ccc2nsnc2c1 [Compound 464]	87.9
CCn1c(Oc2ccc3cc[nH]c3c2)nnc1[C@@H](C)NS(=O)(=O)c1ccsc1 [Compound 466]	51.1
CCn1c(Oc2ccc3cc[nH]c3c2)nnc1[C@@H](C)NS(=O)(=O)c1ccc(-c2cnco2)s1 [Compound 467]	59.9
CCn1c(Oc2ccc3cc[nH]c3c2)nnc1[C@@H](C)NS(=O)(=O)c1cnn(-c2ccccc2)c1C [Compound 468]	56.2
CCn1c(Oc2ccc3cc[nH]c3c2)nnc1[C@@H](C)NS(=O)(=O)c1cc(C)sc1C [Compound 472]	55.3
CCn1c(Oc2ccc3cc[nH]c3c2)nnc1[C@@H](C)NS(=O)(=O)c1ccc(OC)cc1OC [Compound 473]	74.5
CCn1c(Oc2ccc3cc[nH]c3c2)nnc1[C@@H](C)CS(=O)(=O)c1ccc(F)c2ccccc12 [Compound 478]	87
CCn1c(Oc2ccc3cc[nH]c3c2)nnc1[C@@H](C)NS(=O)(=O)c1csc2ccccc12 [Compound 494]	66
CCn1c(Oc2cccc(N3CCN(C)CC3)c2)nnc1[C@@H](C)NS(=O)(=O)c1ccc(C(C)=O)cc1 [Compound 497]	104

Same assay, conditions: test compound at 10 μM; inhibition of [33P]-S1P binding to the membrane fraction of HEK-293 cells expressing human Edg-1 (S1P1)

inhibition at 10 µM [%]	Structure (SMILES)
65.9	CCn1c(Oc2ccc3cc[nH]c3c2)nnc1[C@@H](C)NS(=O)(=O)c1cc(F)ccc1C [Compound 390]
80.4	CCn1c(Oc2ccc3cc[nH]c3c2)nnc1[C@@H](C)NS(=O)(=O)c1c(C)c(C)c(C)c(C)c1C [Compound 391]

Further lines, the compound ahead of its results:

Structure (SMILES)	inhibition at 10 µM [%]
CCn1c(Oc2ccc3cc[nH]c3c2)nnc1[C@@H](C)NS(=O)(=O)c1cc(Br)ccc1OC [Compound 389]	88
CCn1c(Oc2ccc3cc[nH]c3c2)nnc1[C@@H](C)NS(=O)(=O)c1ccc(Br)c(Br)c1 [Compound 392]	73.6
CCn1c(Oc2ccc3cc[nH]c3c2)nnc1[C@@H](C)NS(=O)(=O)c1cc(C)ccc1OC [Compound 393]	79.7
